Where “and” joins values, the source holds several entries; their conditions need not be identical. Equal entries are not always repeated. Toxic doses and inconclusive results are not listed.

In the assay the test system is P388 leukemia ip, CD2F1 mice, survival T/C. Briefly: NCI In Vivo Anticancer Drug Screen. Data for tumor model P388 Leukemia (intraperitoneal) in CD2F1 (CDF1) mice. The note with it: endpoint: median survival time, higher = longer survival. In a few lines:
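Mice carrying the transplanted tumor received test compound or vehicle. Survival was recorded in each group, and the value is the treated-group measurement divided by that of the vehicle-treated control group.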

Where [1] appears, read: dose: 50.0 mg/kg/injection, schedule: Q01DX009 (ip), vehicle: saline with Tween-80.
Where [2] appears, read: dose: 6.25 mg/kg/injection, schedule: Q01DX005 (ip), vehicle: saline with Tween-80.

As for `COc1ccc(Cl)cc1C`, the T/C (dose: 12.5 mg/kg/injection, schedule: Q01DX009 (ip), vehicle: distilled water + Tween-80) is 99 % of control; the T/C (dose: 25.0 mg/kg/injection, schedule: Q01DX009 (ip), vehicle: distilled water + Tween-80) was 97 % of control; the T/C (dose: 50.0 mg/kg/injection, schedule: Q01DX009 (ip), vehicle: distilled water + Tween-80) was 98 % of control; the T/C (dose: 100.0 mg/kg/injection, schedule: Q01DX009 (ip), vehicle: distilled water + Tween-80) is 98 % of control; the T/C (dose: 200.0 mg/kg/injection, schedule: Q01DX009 (ip), vehicle: distilled water + Tween-80) was 108 % of control; the T/C (dose: 400.0 mg/kg/injection, schedule: Q01DX009 (ip), vehicle: distilled water + Tween-80) was 116 % of control.
Consider `COC(=O)C(N)Cc1ccc(OCc2ccccc2)cc1` (stereo not given), for which the T/C by setting is: (dose: 12.5 mg/kg/injection, schedule: Q01DX009 (ip), vehicle: saline) 102 % of control; (dose: 25.0 mg/kg/injection, schedule: Q01DX009 (ip), vehicle: saline) 102 % of control; (dose: 25.0 mg/kg/injection, schedule: Q04DX002 (ip), vehicle: saline with Tween-80) 97 % of control; (dose: 50.0 mg/kg/injection, schedule: Q01DX009 (ip), vehicle: saline) 100 % of control and 101 % of control; (dose: 50.0 mg/kg/injection, schedule: Q04DX002 (ip), vehicle: saline with Tween-80) 108 % of control.
For the compound `COC(=O)C(CCSC)NC(=O)C(Cc1c[nH]c2ccccc12)NC(=O)OC(C)(C)C` (stereo not given), the T/C is 86 % of control (dose: 50.0 mg/kg/injection, schedule: Q01DX009 (ip), vehicle: Klucel (hydroxypropylcellulose) (HPC)); 97 % of control (dose: 100.0 mg/kg/injection, schedule: Q01DX009 (ip), vehicle: Klucel (hydroxypropylcellulose) (HPC)); 106 % of control (dose: 200.0 mg/kg/injection, schedule: Q01DX009 (ip), vehicle: Klucel (hydroxypropylcellulose) (HPC)).
As to `c1ccc(-[n+]2ccc(-c3cc[n+](-c4ccccc4)cc3)cc2)cc1`, the T/C (dose: 100.0 mg/kg/injection, schedule: Q04DX002 (ip), vehicle: Klucel (hydroxypropylcellulose) (HPC)) was 97 % of control.
Regarding `CC1(C)CC(=O)C2=C(C1)Nn1c(nnc1C(F)(F)F)S2`, the T/C reads like this: under setting [1], 102 % of control; (dose: 100.0 mg/kg/injection, schedule: Q01DX009 (ip), vehicle: saline with Tween-80) 110 % of control; (dose: 200.0 mg/kg/injection, schedule: Q01DX009 (ip), vehicle: saline with Tween-80) 105 % of control.
Regarding `c1ccc2c(c1)C1c3cccc[n+]3C2C2C1CC1C3c4ccccc4C(C12)[n+]1ccccc13` (stereo not given), the T/C was 102 % of control (dose: 1.56 mg/kg/injection, schedule: Q01DX005 (ip), vehicle: saline with Tween-80); 102 % of control (dose: 3.13 mg/kg/injection, schedule: Q01DX005 (ip), vehicle: saline with Tween-80); 104 % of control and 94 % of control under setting [2].
As to `COC(=O)c1cc(O)c2c(c1C(=O)OC)C[C@H]1[C@@H]3CCC4=CC(=O)CC[C@]4(C)[C@H]3CC[C@]21C`, the T/C is 93 % of control (dose: 1.5 mg/kg/injection, schedule: Q01DX005 (ip), vehicle: saline with Tween-80); 91 % of control (dose: 3.0 mg/kg/injection, schedule: Q01DX005 (ip), vehicle: saline with Tween-80); 92 % of control under setting [2]; 86 % of control (dose: 200.0 mg/kg/injection, schedule: Q01DX005 (ip), vehicle: saline with Tween-80).
Consider `CN(C)CCOC(=O)C1CC2(C1)CC(C(=O)OCCN(C)C)C2` (stereo not given), for which the T/C is, setting by setting: (dose: 50.0 mg/kg/injection, schedule: Q01DX005 (ip), vehicle: Klucel (hydroxypropylcellulose) (HPC)) 95 % of control; (dose: 100.0 mg/kg/injection, schedule: Q01DX005 (ip), vehicle: Klucel (hydroxypropylcellulose) (HPC)) 97 % of control; (dose: 200.0 mg/kg/injection, schedule: Q01DX005 (ip), vehicle: Klucel (hydroxypropylcellulose) (HPC)) 103 % of control.
Take `O=C1c2cc(Cl)ccc2NC(O)c2cccn21` (stereo not given): the T/C is 93 % of control (dose: 0.1 mg/kg/injection, schedule: Q01DX005 (ip), vehicle: water); 89 % of control (dose: 0.2 mg/kg/injection, schedule: Q01DX005 (ip), vehicle: water); 90 % of control (dose: 0.4 mg/kg/injection, schedule: Q01DX005 (ip), vehicle: water); 98 % of control (dose: 0.8 mg/kg/injection, schedule: Q01DX005 (ip), vehicle: water); 98 % of control (dose: 1.6 mg/kg/injection, schedule: Q01DX005 (ip), vehicle: water); 95 % of control (dose: 5.0 mg/kg/injection, schedule: Q01DX005 (ip), vehicle: distilled water + Tween-80). The T/C is 101 % of control (dose: 10.0 mg/kg/injection, schedule: Q01DX005 (ip), vehicle: distilled water + Tween-80); 95 % of control (dose: 20.0 mg/kg/injection, schedule: Q01DX005 (ip), vehicle: distilled water + Tween-80); 92 % of control (dose: 40.0 mg/kg/injection, schedule: Q01DX005 (ip), vehicle: distilled water + Tween-80); 93 % of control (dose: 80.0 mg/kg/injection, schedule: Q01DX005 (ip), vehicle: distilled water + Tween-80).
As to `Cc1cccc(C)c1NC1=C(Cl)C(=O)c2ccccc2C1=O`, the T/C was 103 % of control (dose: 3.75 mg/kg/injection, schedule: Q01DX005 (ip), vehicle: saline with Tween-80); 97 % of control (dose: 7.5 mg/kg/injection, schedule: Q01DX005 (ip), vehicle: saline with Tween-80); 100 % of control (dose: 15.0 mg/kg/injection, schedule: Q01DX005 (ip), vehicle: saline with Tween-80).
As for `Nc1nnc2cccc(Cl)n12`, the T/C reads like this: (dose: 100.0 mg/kg/injection, schedule: Q01DX001 (ip), vehicle: Klucel (hydroxypropylcellulose) (HPC)) 98 % of control; (dose: 200.0 mg/kg/injection, schedule: Q01DX001 (ip), vehicle: Klucel (hydroxypropylcellulose) (HPC)) 96 % of control; (dose: 400.0 mg/kg/injection, schedule: Q01DX001 (ip), vehicle: Klucel (hydroxypropylcellulose) (HPC)) 99 % of control.
Take `O=C1NC(=O)c2ncccc21`: the T/C is 100 % of control (dose: 100.0 mg/kg/injection, schedule: Q04DX003 (ip), vehicle: saline with Tween-80); 100 % of control (dose: 200.0 mg/kg/injection, schedule: Q04DX003 (ip), vehicle: saline with Tween-80); 100 % of control (dose: 400.0 mg/kg/injection, schedule: Q04DX003 (ip), vehicle: saline with Tween-80).
Turning to `COc1ccc2[nH]c3c(C)c4cc[n+](C)c(C)c4cc3c2c1`, the T/C (dose: 1.56 mg/kg/injection, schedule: Q04DX002 (ip), vehicle: water) was 97 % of control; the T/C (dose: 3.12 mg/kg/injection, schedule: Q04DX002 (ip), vehicle: water) was 104 % of control; the T/C (dose: 6.25 mg/kg/injection, schedule: Q04DX002 (ip), vehicle: water) is 107 % of control; the T/C (dose: 10.0 mg/kg/injection, schedule: Q04DX002 (ip), vehicle: water) is 200 % of control; the T/C (dose: 12.5 mg/kg/injection, schedule: Q04DX002 (ip), vehicle: water) was 113 % of control; the T/C (dose: 20.0 mg/kg/injection, schedule: Q04DX002 (ip), vehicle: water) was 115 % of control. The T/C is 117 % of control (dose: 25.0 mg/kg/injection, schedule: Q04DX002 (ip), vehicle: water); 112 % of control (dose: 40.0 mg/kg/injection, schedule: Q04DX002 (ip), vehicle: water); 123 % of control (dose: 50.0 mg/kg/injection, schedule: Q04DX002 (ip), vehicle: water).
Take `CCN1c2ccccc2CC(C#N)(CCN(C)C)c2ccccc21` (stereo not given): the T/C was 100 % of control (dose: 12.5 mg/kg/injection, schedule: Q01DX009 (ip), vehicle: saline with Tween-80); 99 % of control (dose: 25.0 mg/kg/injection, schedule: Q01DX009 (ip), vehicle: saline with Tween-80); 104 % of control under setting [1].
For `Clc1cc2c(cc1CO/N=C\c1ccc3c(c1)OCO3)OCO2`, the T/C was 90 % of control (dose: 50.0 mg/kg/injection, schedule: Q04DX003 (ip), vehicle: saline sonified); 95 % of control (dose: 100.0 mg/kg/injection, schedule: Q04DX003 (ip), vehicle: saline sonified); 90 % of control (dose: 200.0 mg/kg/injection, schedule: Q04DX003 (ip), vehicle: saline sonified).
`Nc1ccccc1NC(=O)c1nc2ccccc2[nH]1`: the T/C was 106 % of control (dose: 100.0 mg/kg/injection, schedule: Q04DX003 (ip), vehicle: Klucel (hydroxypropylcellulose) (HPC)); 97 % of control (dose: 200.0 mg/kg/injection, schedule: Q04DX003 (ip), vehicle: Klucel (hydroxypropylcellulose) (HPC)); 97 % of control (dose: 400.0 mg/kg/injection, schedule: Q04DX003 (ip), vehicle: Klucel (hydroxypropylcellulose) (HPC)).

For the origin of these results see PubChem BioAssay AID330 (DTP/NCI, 2004).
